We go through one compound from patent publication US20230310356A1, “COMPOSITION FOR PREVENTING, AMELIORATING, OR TREATING BRAIN DAMAGE AND MILD COGNITIVE IMPAIRMENT COMPRISING GLUTAMINE AS EFFECTIVE COMPONENT” (INDUSTRY-ACADEMIC COOPERATION FOUNDATION GYEONGSANG …, priority 2020, published 2023).

“Also recorded” adds a separate entry of the source.

What all share (type): in vivo, mouse
Assay [1] has as its system stratum pyramidale CA1 in hippocampus. The assay is described as follows: Morphological change in hippocampus (Nissl staining, width of stratum pyramidale CA1) after CIS and glutamine supplementation. The following applies: STR+Gln vs STR; glutamine 150 mg/kg of feed. Here is the method:
Control (CTL) is a group which received normal diet (common diet with nutritional balance) without any stress, CTL+Gln group is a normal diet group supplemented with glutamine (150 mg/kg of feed) and without any stress, STR is a normal diet group under stress, and STR+Gln group is a normal diet group supplemented with glutamine (150 mg/kg of feed) under stress. The stress group (STR) was individually brought by force to a restrainer for 2 hours every day (i.e., between 2 PM and 4 PM) so that the animals are applied with chronic immobilization stress for 15 days. Any morphological change in hippocampus caused by the application of chronic immobilization stress and glutamine supplementation was determined by brain tissue staining of hippocampal region. Specifically, a section (i.e., brain tissue specimen) obtained after mounting for 5 minutes in 0.1% cresyl violet which has been dissolved in 0.2% acetic acid followed by air-drying was stained. Stained section was washed, subsequently immersed for 30 seconds in 80% (v/v) ethanol, again immersed for 30 seconds in 90% (v/v) ethanol, and again immersed twice for 30 seconds in 95% (v/v) ethanol. It was again immersed twice for 30 seconds in 100% (v/v) ethanol for dehydration. […]

The subject of another assay is ROS/RNS. Description: ROS/RNS levels in plasma, PFC and hippocampus after CIS and glutamine supplementation. The following applies: STR+Gln vs STR. Here is the method: Control (CTL) is a group which received normal diet (common diet with nutritional balance) without any stress, CTL+Gln group is a normal diet group supplemented with glutamine (150 mg/kg of feed) and without any stress, STR is a normal diet group under stress, and STR+Gln group is a normal diet group supplemented with glutamine (150 mg/kg of feed) under stress. The stress group (STR) was individually brought by force to a restrainer for 2 hours every day (i.e., between 2 PM and 4 PM) so that the animals are applied with chronic immobilization stress for 15 days. Fifty-one model animals of the second cohort, i.e., 12 to 13 animals per group, were not subjected to any behavior analysis but immediately sacrificed after completion of the last immobilization stress. Then, ROS/RNS levels in the plasma, PFC, and hippocampus were examined. Specifically, ROS/RNS was examined by using ROS/RNS assay kit (STA-347; Cell Biolabs, San Diego, CA, USA) and following the manufacturer's protocol. PFC and hippocampal tissues were subjected to tissue homogenization by using Bullert blender after adding glass beads to RIPA (radioimmunoprecipitation assay) buffer solution. After the ultrasonication for 2 minutes, they were centrifuged for 10 minutes at conditions including 4° C. and 12,000×g. Then, the measurement of fluorescence intensity using Tecan Infinite F200 PRO MicroReader was repeated 3 times.

For the next assay, the system named is p47phox. Description: Double-IHC protein expression after CIS and glutamine supplementation: p47phox. Particulars: microglial cells in infralimbic cortex and hippocampal CA1 region; glutamine supplementation diet vs stress group. Here is the method: (§1) Control (CTL) is a group which received normal diet (common diet with nutritional balance) without any stress, CTL+Gln group is a normal diet group supplemented with glutamine (150 mg/kg of feed) and without any stress, STR is a normal diet group under stress, and STR+Gln group is a normal diet group supplemented with glutamine (150 mg/kg of feed) under stress. The stress group (STR) was individually brought by force to a restrainer for 2 hours every day (i.e., between 2 PM and 4 PM) so that the animals are applied with chronic immobilization stress for 15 days. To determine the specific changes in the brain tissues after glutamine supplementation, double staining was carried out with a cell marker so that the proteins related to a change in ROS/RNS content (i.e., iNOS; nNOS; and p47phox and p67phox as a subunit of NOX) with cell markers are analyzed by double-IHC (immunohistochemistry). Twenty-four hours after applying the last stress, the mouse was anesthetized with avertin, and perfused with PBS (pH 7.4) and 4% formaldehyde. After that, the brain was removed, fixed, and cut to a thickness with 40 μm. […]

The subject of a further assay is p67phox. The assay is described as follows: Double-IHC protein expression after CIS and glutamine supplementation: p67phox. The following applies: microglial cells in infralimbic cortex and hippocampal CA1 region; glutamine supplementation diet vs stress group. On the procedure:
as §1

A further assay has as its system amyloid beta 42 (Aβ42). The assay is described as follows: Aβ42 in neuronally derived blood exosome (NDE) by ELISA after glutamine diet. Particulars: female 3×TG-AD, 3×TG+Gln vs 3×TG, after test with 6-months old animals. On the procedure: As an animal model for cognitive ability evaluation, a 7-weeks old 3×TG-AD female mouse (8 mice. model of Alzheimer's disease) and a C57BL/6 female mouse (10 mice, control) were selected. The animals of each type were divided into 2 groups, and each group was provided with regular animal feed (i.e., normal diet, ND) or glutamine feed (Gln). The glutamine diet group was allowed to consume the feed containing 150 mg glutamine/kg diet, from 2-months old stage to the end of test (i.e., 6 to 7-months old stage). Health state of the animal was checked by measuring, once a week, the bodyweight of the animal and food intake (FIG. 7A). After the cognitive ability test with 6-months old animals, the mouse was sacrificed using carbon dioxide and a change in neuronally derived blood exosome (NDE) protein was determined. Total exosomes were separated from serum, and, after a reaction for 1 hour with anti-CD171 antibody, they were reacted for 1 hour with streptavidin-fused magnetic beads. After that, elution was carried out using 0.05 M glycine-HCl (pH 3.0), and then addition of 1 M Tris-HCl (pH 8.0) was made. Analysis was then made by using amyloid beta 42 (Aβ42) mouse ELISA kit.
Background: In an ELISA, binding on a coated surface is turned into a signal by an enzyme label.

Turning to `NC(=O)CC[C@H](N)C(=O)O` [glutamine], in assay [1], the “width of CA1-SP (stratum pyramidale CA1)” value is given as “restored”. Further, the “level of active oxygen/nitrogen species (ROS/RNS) in hippocampus” value with ROS/RNS (hippocampal tissue) is “lower level”. Besides, in the assay on ROS/RNS (plasma), the “level of active oxygen/nitrogen species (ROS/RNS) in plasma” value was “lower level”. In addition, the “level of active oxygen/nitrogen species (ROS/RNS) in PFC” value in the assay on ROS/RNS (prefrontal cortex) was “lower level”. Besides, the “expression amount of p47phox” value with p47phox was “statistically significant decrement”. In addition, the “expression amount of p67phox” value with p67phox is given as “statistically significant decrement”. In addition, the “Aβ42 in NDE (neuronally derived blood exosome)” value in the assay with amyloid beta 42 (Aβ42) was “statistically significant decrease; also recorded: suppressed”.
